Measurements published in patent publication US20230159445A1, “STAT INHIBITORY COMPOUNDS AND COMPOSITIONS” (JANPIX LIMITED, priority 2020, published 2023).

How the values were obtained:
glutathione (GSH) = experiment: Reactivity Profiling with Glutathione (GSH), half-life by HPLC; settings: 5 mM glutathione (GSH) in IMDM with 10% FBS
MV4-11 cells = experiment: MV4-11 Cell Cytotoxicity Assay (CellTiter-Blue, 72 h); assay type: cell-based, human; settings: Homo sapiens, MV4-11; MV-4-11 cells
Outline: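 Cells seeded 24 h before treatment, then exposed 72 h at 37° C, 5% CO2 to inhibitors in triplicate, top concentration 50 μM with 1:2 serial dilutions (0.5% DMSO vehicle). Viability read by CellTiter-Blue fluorescence at 560/590 nm after 1 h.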

[1] = system: normal human fibroblast (NHF) cells; experiment: NHF Cell Cytotoxicity Assay (CellTiter-Blue, 72 h), off-target effects; assay type: cell-based; settings: Homo sapiens, Fibroblast; pooled NHF cells
Outline: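 Normal human fibroblasts (1×10^4/well, 10% FBS medium) were treated after 24 h with inhibitor at 0.097656-50 μM for 72 h at 37° C. Viability was read by CellTiter-Blue fluorescence (560/590 nm), normalized to DMSO control, and IC50 obtained from a variable-slope log(inhibitor)-response fit of four replicates.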

Row | Compound | half-life at 25 μM (glutathione (GSH)) [h] | IC50 (MV4-11 cells) [nM] | IC50 [1] [nM]
1 | COc1cc(C(=O)O)ccc1N(Cc1cc(C2CC2)cc(C(C)(C)C)c1)C(=O)CN(Cc1c(F)c(F)c(F)c(F)c1F)S(=O)(=O)c1c(F)c(F)c(F)c(F)c1F [Compound 1066, 4-(N-(3-(tert-butyl)-5-cyclopropylbenzyl)-2-(N-((perfluorophenyl)methyl)-(2,3,4,5,6-pentafluoro-phenyl)sulfonamido)acetamido)-3-methoxybenzoic acid] | 4.12 to 9.23 | 0.01 to 316 | 1 to 10000
2 | O=C(O)c1ccc(N(Cc2cc(C3CC3)cc(C3CC3)c2)C(=O)CN(Cc2ccc(F)cc2Cl)S(=O)(=O)c2c(F)c(F)c(F)c(F)c2F)c(OC2CC2)c1 [Compound 1167, 4-(2-(N-(2-chloro-4-fluorobenzyl)-(2,3,4,5,6-pentafluorophenyl)sulfon-amido)-N-(3,5-dicyclopropylbenzyl)acetamido)-3-cyclopropoxybenzoic acid] | 4.12 to 9.23 | 0.01 to 316 | 10000 to 20000
3 | CC(C)(C)c1cc(CN(C(=O)CN(Cc2cnccc2C(F)(F)F)S(=O)(=O)c2c(F)c(F)c(F)c(F)c2F)c2ccc(C(=O)O)cc2C2CC2)cc(C2CC2)c1 [Compound 1186, 4-(N-(3-(tert-butyl)-5-cyclopropylbenzyl)-2-(N-((4-(trifluoromethyl)pyridin-3-yl)methyl)-(2,3,4,5,6-pentafluoro-phenyl)sulfonamido)acetamido)-3-cyclopropylbenzoic acid] | 2.37 to 4.12 | 0.01 to 316 | 1 to 10000
4 | O=C(O)c1ccc(N(Cc2cc(C3CC3)cc(C3CC3)c2)C(=O)CN(Cc2ccccc2C(F)(F)F)S(=O)(=O)c2c(F)c(F)c(F)c(F)c2F)c(OC2CC2)c1 [Compound 1141] | 4.12 to 9.23 | 0.01 to 316 | 20000 to 30000
5 | CC(C)(C)c1cc(CN(C(=O)CN(Cc2ccc(F)cc2Cl)S(=O)(=O)c2c(F)c(F)c(F)c(F)c2F)c2ccc(C(=O)O)cc2OC2CC2)cc(C2CC2)c1 [Compound 1189, 4-(N-(3-(tert-butyl)-5-cyclopropylbenzyl)-2-(N-(2-chloro-4-fluorobenzyl)-(2,3,4,5,6-pentafluorophenyl)sulfon-amido)acetamido)-3-cyclopropoxybenzoic acid] | 9.23 to 1670 | 0.01 to 316 | 10000 to 20000
6 | O=C(O)c1ccc(N(Cc2cc(C3CC3)cc(C3CC3)c2)C(=O)CN(Cc2c(F)c(F)c(F)c(F)c2F)S(=O)(=O)c2c(F)c(F)c(F)c(F)c2F)c(C2CC2)c1 [Compound 1196, 3-cyclopropyl-4-(N-(3,5-dicyclopropylbenzyl)-2-(N-((perfluorophenyl)methyl)-(2,3,4,5,6-pentafluoro-phenyl)sulfonamido)acetamido)benzoic acid] | 9.23 to 1670 | 0.01 to 316 | 1 to 10000
7 | CCCCOc1cc(C(=O)O)ccc1N(Cc1cc(C2CC2)cc(C2CC2)c1)C(=O)CN(Cc1ccc(F)cc1Cl)S(=O)(=O)c1c(F)c(F)c(F)c(F)c1F [Compound 1254, 3-butoxy-4-(2-(N-(2-chloro-4-fluorobenzyl)-(2,3,4,5,6-pentafluorophenyl)sulfon-amido)-N-(3,5-dicyclopropylbenzyl)acetamido)benzoic acid] | 9.23 to 1670 | 0.01 to 316 | 20000 to 30000
8 | CC(C)(C)c1cc(CN(C(=O)CN(Cc2ccccc2F)S(=O)(=O)c2c(F)c(F)c(F)c(F)c2F)c2ccc(C(=O)O)cc2OC2CC2)cc(C2CC2)c1 [Compound 1062, 4-(N-(3-(tert-butyl)-5-cyclopropylbenzyl)-2-(N-(2-fluorobenzyl)-(2,3,4,5,6-pentafluoro-phenyl)sulfonamido)acetamido)-3-cyclopropoxybenzoic acid] | 9.23 to 1670 | 0.01 to 316 | 10000 to 20000
9 | COc1cc(C(=O)O)ccc1N(Cc1cc(C2CC2)cc(C(C)(C)C)c1)C(=O)CN(Cc1ccccc1C(F)(F)F)S(=O)(=O)c1c(F)c(F)c(F)c(F)c1F [Compound 1087, 4-(N-(3-(tert-butyl)-5-cyclopropylbenzyl)-2-(N-(2-(trifluoromethyl)benzyl)-(2,3,4,5,6-pentafluoro-phenyl)sulfonamido)acetamido)-3-methoxybenzoic acid] | 4.12 to 9.23 | 0.01 to 316 | 20000 to 30000
10 | CC(C)(C)c1cc(CN(C(=O)CN(Cc2ccccc2F)S(=O)(=O)c2c(F)c(F)c(F)c(F)c2F)c2ccc(C(=O)O)cc2OC2CCCC2)cc(C2CC2)c1 [Compound 1094, 4-(N-(3-(tert-butyl)-5-cyclopropylbenzyl)-2-(N-(2-fluorobenzyl)-(2,3,4,5,6-pentafluoro-phenyl)sulfonamido)acetamido)-3-(cyclopentyloxy)benzoic acid] | 9.23 to 1670 | 0.01 to 316 | 20000 to 30000
11 | COc1cc(C(=O)O)ccc1N(Cc1cc(C2CC2)cc(C(C)(C)C)c1)C(=O)CN(Cc1ccc(F)cc1Cl)S(=O)(=O)c1c(F)c(F)c(F)c(F)c1F [Compound 1143, 4-(N-(3-(tert-butyl)-5-cyclopropylbenzyl)-2-(N-(2-chloro-4-fluorobenzyl)-(2,3,4,5,6-pentafluorophenyl)sulfon-amido)acetamido)-3-methoxybenzoic acid] | 4.12 to 9.23 | 0.01 to 316 | 10000 to 20000
12 | COc1cc(C(=O)O)ccc1N(Cc1cc(C2CC2)cc(C(C)(C)C)c1)C(=O)CN(Cc1ccccc1F)S(=O)(=O)c1c(F)c(F)c(F)c(F)c1F [Compound 1061, 4-(N-(3-(tert-butyl)-5-cyclopropylbenzyl)-2-(N-(2-fluorobenzyl)-(2,3,4,5,6-pentafluoro-phenyl)sulfonamido)acetamido)-3-methoxybenzoic acid] | 2.37 to 4.12 | 0.01 to 316 | 10000 to 20000

Second part, led by results:

Row | half-life at 25 μM (glutathione (GSH)) [h] | Compound | IC50 (MV4-11 cells) [nM] | IC50 [1] [nM]
13 | 9.23 to 1670 | O=C(O)c1ccc(N(Cc2cc(C3CC3)cc(C(F)(F)F)c2)C(=O)CN(Cc2ccccc2C(F)(F)F)S(=O)(=O)c2c(F)c(F)c(F)c(F)c2F)c(OC2CC2)c1 [Compound 1221, 3-cyclopropoxy-4-(N-(3-cyclopropyl-5-(trifluoromethyl)benzyl)-2-(N-(2-(trifluoromethyl)benzyl)-(2,3,4,5,6-pentafluoro-phenyl)sulfonamido)acetamido)benzoic acid] | 316 to 1000 | 20000 to 30000
14 | 4.12 to 9.23 | O=C(O)c1ccc(N(Cc2cc(C3CC3)cc(C3CC3)c2)C(=O)CN(Cc2cnccc2C(F)(F)F)S(=O)(=O)c2c(F)c(F)c(F)c(F)c2F)c(OC2CCCC2)c1 [Compound 1207, 3-(cyclopentyloxy)-4-(N-(3,5-dicyclopropylbenzyl)-2-(N-((4-(trifluoromethyl)pyridin-3-yl)methyl)-(2,3,4,5,6-pentafluoro-phenyl)sulfonamido)acetamido)benzoic acid] | 0.01 to 316 | 10000 to 20000
15 | 2.37 to 4.12 | CC(C)Oc1cc(CN(C(=O)CN(Cc2ccccc2C(F)(F)F)S(=O)(=O)c2c(F)c(F)c(F)c(F)c2F)c2ccc(C(=O)O)cc2OC2CC2)cc(C2CC2)c1 [Compound 1213, 3-cyclopropoxy-4-(N-(3-cyclopropyl-5-isopropoxybenzyl)-2-(N-(2-(trifluoromethyl)benzyl)-(2,3,4,5,6-pentafluoro-phenyl)sulfonamido)acetamido)benzoic acid] | 0.01 to 316 | 10000 to 20000
16 | 2.37 to 4.12 | COCCOc1cc(C(=O)O)ccc1N(Cc1cc(C2CC2)cc(C(C)(C)C)c1)C(=O)CN(Cc1ccc(F)cc1Cl)S(=O)(=O)c1c(F)c(F)c(F)c(F)c1F [Compound 1246, 4-(N-(3-(tert-butyl)-5-cyclopropylbenzyl)-2-(N-(2-chloro-4-fluorobenzyl)-(2,3,4,5,6-pentafluorophenyl)sulfon-amido)acetamido)-3-(2-methoxyethoxy)benzoic acid] | 0.01 to 316 | 10000 to 20000
17 | 4.12 to 9.23 | CN(C)c1cc(C(=O)O)ccc1N(Cc1cc(C2CC2)cc(C2CC2)c1)C(=O)CN(Cc1ccccc1C(F)(F)F)S(=O)(=O)c1c(F)c(F)c(F)c(F)c1F [Compound 1215, 4-(N-(3,5-dicyclopropylbenzyl)-2-(N-(2-(trifluoromethyl)benzyl)-(2,3,4,5,6-pentafluoro-phenyl)sulfonamido)acetamido)-3-(dimethylamino) benzoic acid] | 0.01 to 316 | 20000 to 30000
18 | 4.12 to 9.23 | CN(C)c1cc(C(=O)O)ccc1N(Cc1cc(C2CC2)cc(C2CC2)c1)C(=O)CN(Cc1ccc(F)cc1Cl)S(=O)(=O)c1c(F)c(F)c(F)c(F)c1F [Compound 1211, 4-(2-(N-(2-chloro-4-fluorobenzyl)-(2,3,4,5,6-pentafluorophenyl)sulfon-amido)-N-(3,5-dicyclopropylbenzyl)acetamido)-3-(dimethylamino) benzoic acid] | 316 to 1000 | 10000 to 20000
19 | 4.12 to 9.23 | O=C(O)c1ccc(N(Cc2cc(C3CC3)cc(C3CC3)c2)C(=O)CN(Cc2ccc(F)cc2Cl)S(=O)(=O)c2c(F)c(F)c(F)c(F)c2F)c(OC(F)(F)F)c1 [Compound 1231, 4-(2-(N-(2-chloro-4-fluorobenzyl)-(2,3,4,5,6-pentafluorophenyl)sulfon-amido)-N-(3,5-dicyclopropylbenzyl)acetamido)-3-(trifluoromethoxy) benzoic acid] | 0.01 to 316 | 10000 to 20000
20 | 4.12 to 9.23 | O=C(O)c1ccc(N(Cc2cc(C3CC3)cc(C(F)(F)F)c2)C(=O)CN(Cc2ccc(F)cc2Cl)S(=O)(=O)c2c(F)c(F)c(F)c(F)c2F)c(OC2CC2)c1 [Compound 1222, 4-(2-(N-(2-chloro-4-fluorobenzyl)-(2,3,4,5,6-pentafluorophenyl)sulfon-amido)-N-(3-cyclopropyl-5-(trifluoromethyl)benzyl)acetamido)-3-cyclopropoxybenzoic acid] | 0.01 to 316 | 10000 to 20000
